Laboratory results published in ChEMBL document CHEMBL3885881, “DrugMatrix”.

Species on record: Rattus norvegicus
Test: DrugMatrix - Regimen: Daily Repeat
Type: toxicity, organism-based, Sprague-Dawley
Set-up: regimen Daily Repeat, gender Male, age 6-8 weeks
Conditions: in vivo, po, route oral GAVAGE, […]; for ABSOLUTE BASOPHIL / ABSOLUTE EOSINOPHIL / ABSOLUTE LYMPHOCYTE / ABSOLUTE MONOCYTE / ABSOLUTE SEGMENTED NEUTROPHIL / BASOPHIL / EOSINOPHIL / ERYTHROCYTE COUNT / HEMATOCRIT / HEMOGLOBIN / LEUKOCYTE COUNT / LYMPHOCYTE / MEAN CORPUSCULAR HEMOGLOBIN / MEAN CORPUSCULAR HEMOGLOBIN CONCENTRATION / MEAN CORPUSCULAR VOLUME / MONOCYTE / NEUTROPHIL / NUCLEATED RED BLOOD CELLS / PLATELET COUNT: tissue Blood; for ALANINE AMINOTRANSFERASE / ALBUMIN / ALKALINE PHOSPHATASE / ASPARTATE AMINOTRANSFERASE / BLOOD UREA NITROGEN / CARBON DIOXIDE / CHLORIDE / CHOLESTEROL / CREATINE PHOSPHOKINASE / CREATININE / GLUCOSE / LACTATE DEHYDROGENASE / LIPASE / PHOSPHORUS / POTASSIUM / SODIUM / TOTAL BILIRUBIN / TOTAL PROTEIN / URIC ACID: tissue Plasma
[1] = 0 mg/kg, 72 h, dose level Control, time 3 day
[2] = 0 mg/kg, 120 h, dose level Control, time 5 day
[3] = 29 mg/kg, 72 h, dose level Low, time 3 day

Compound: C[C@@H]1CN(c2c(F)c(N)c3c(=O)c(C(=O)O)cn(C4CC4)c3c2F)C[C@H](C)N1 [SPARFLOXACIN]
- ABSOLUTE BASOPHIL [1]: 0 CELLS/uL
- ABSOLUTE EOSINOPHIL [1]: 70.67 CELLS/uL
- ABSOLUTE LYMPHOCYTE [1]: 12761.5 CELLS/uL
- ABSOLUTE MONOCYTE [1]: 214.17 CELLS/uL
- ABSOLUTE SEGMENTED NEUTROPHIL [1]: 987 CELLS/uL
- BASOPHIL [1]: 0%
- EOSINOPHIL [1]: 0.5%
- ERYTHROCYTE COUNT [1]: 5.61 x10E6/uL
- HEMATOCRIT [1]: 35.22%
- HEMOGLOBIN [1]: 13.57 G/DL
- LEUKOCYTE COUNT [1]: 14.03 x10E3/uL
- LYMPHOCYTE [1]: 91%
- MEAN CORPUSCULAR HEMOGLOBIN [1]: 24.25 pg
- MEAN CORPUSCULAR HEMOGLOBIN CONCENTRATION [1]: 38.52 G/DL
- MEAN CORPUSCULAR VOLUME [1]: 62.9 fL
- MONOCYTE [1]: 1.5%
- NEUTROPHIL [1]: 7%
- NUCLEATED RED BLOOD CELLS [1]: 0 /100WBC
- PLATELET COUNT [1]: 997.5 x10E3/uL
- ALANINE AMINOTRANSFERASE [1]: 66.5 u/L
- ALBUMIN [1]: 3.98 G/DL
- ALKALINE PHOSPHATASE [1]: 350 u/L
- ASPARTATE AMINOTRANSFERASE [1]: 83.83 u/L
- BLOOD UREA NITROGEN [1]: 12.33 mg/dL
- CARBON DIOXIDE [1]: 30.33 mmol/L
- CHLORIDE [1]: 100 MEQ/L
- CHOLESTEROL [1]: 75 mg/dL
- CREATINE PHOSPHOKINASE [1]: 200 u/L
- CREATININE [1]: 0.17 mg/dL
- GLUCOSE [1]: 170 mg/dL
- LACTATE DEHYDROGENASE [1]: 89.33 u/L
- LIPASE [1]: 10.33 u/L
- PHOSPHORUS [1]: 10.88 mg/dL
- POTASSIUM [1]: 6.13 MEQ/L
- SODIUM [1]: 140.53 MEQ/L
- TOTAL BILIRUBIN [1]: 0.2 mg/dL
- TOTAL PROTEIN [1]: 5.67 G/DL
- URIC ACID [1]: 1.6 mg/dL
- ABSOLUTE BASOPHIL [2]: 0 CELLS/uL
- ABSOLUTE EOSINOPHIL [2]: 0 CELLS/uL
- ABSOLUTE LYMPHOCYTE [2]: 9526.67 CELLS/uL
- ABSOLUTE MONOCYTE [2]: 134.17 CELLS/uL
- ABSOLUTE SEGMENTED NEUTROPHIL [2]: 922.5 CELLS/uL
- BASOPHIL [2]: 0%
- EOSINOPHIL [2]: 0%
- ERYTHROCYTE COUNT [2]: 5.58 x10E6/uL
- HEMATOCRIT [2]: 34.78%
- HEMOGLOBIN [2]: 13.5 G/DL
- LEUKOCYTE COUNT [2]: 10.58 x10E3/uL
- LYMPHOCYTE [2]: 90.17%
- MEAN CORPUSCULAR HEMOGLOBIN [2]: 24.27 pg
- MEAN CORPUSCULAR HEMOGLOBIN CONCENTRATION [2]: 38.82 G/DL
- MEAN CORPUSCULAR VOLUME [2]: 62.48 fL
- MONOCYTE [2]: 1.17%
- NEUTROPHIL [2]: 8.67%
- NUCLEATED RED BLOOD CELLS [2]: 0.17 /100WBC
- PLATELET COUNT [2]: 807.17 x10E3/uL
- ALANINE AMINOTRANSFERASE [2]: 66.83 u/L
- ALBUMIN [2]: 3.73 G/DL
- ALKALINE PHOSPHATASE [2]: 286.17 u/L
- ASPARTATE AMINOTRANSFERASE [2]: 142.33 u/L
- BLOOD UREA NITROGEN [2]: 14.67 mg/dL
- CARBON DIOXIDE [2]: 25.5 mmol/L
- CHLORIDE [2]: 89.17 MEQ/L
- CHOLESTEROL [2]: 75.17 mg/dL
- CREATINE PHOSPHOKINASE [2]: 310.67 u/L
- CREATININE [2]: 0.2 mg/dL
- GLUCOSE [2]: 153 mg/dL
- LACTATE DEHYDROGENASE [2]: 1594 u/L
- LIPASE [2]: 14.83 u/L
- PHOSPHORUS [2]: 11.28 mg/dL
- POTASSIUM [2]: 8.46 MEQ/L
- SODIUM [2]: 126.88 MEQ/L
- TOTAL BILIRUBIN [2]: 0.37 mg/dL
- TOTAL PROTEIN [2]: 5.53 G/DL
- URIC ACID [2]: 1.52 mg/dL
- ABSOLUTE BASOPHIL [3]: 0 CELLS/uL
- ABSOLUTE EOSINOPHIL [3]: 0 CELLS/uL
- ABSOLUTE LYMPHOCYTE [3]: 14451.67 CELLS/uL
- ABSOLUTE MONOCYTE [3]: 45 CELLS/uL
- ABSOLUTE SEGMENTED NEUTROPHIL [3]: 1203.33 CELLS/uL
- BASOPHIL [3]: 0%
- EOSINOPHIL [3]: 0%
- ERYTHROCYTE COUNT [3]: 5.64 x10E6/uL
- HEMATOCRIT [3]: 35.07%
- HEMOGLOBIN [3]: 13.97 G/DL
- LEUKOCYTE COUNT [3]: 15.7 x10E3/uL
- LYMPHOCYTE [3]: 92%
- MEAN CORPUSCULAR HEMOGLOBIN [3]: 24.77 pg
- MEAN CORPUSCULAR HEMOGLOBIN CONCENTRATION [3]: 39.83 G/DL
- MEAN CORPUSCULAR VOLUME [3]: 62.2 fL
- MONOCYTE [3]: 0.33%
- NEUTROPHIL [3]: 7.67%
- NUCLEATED RED BLOOD CELLS [3]: 0.33 /100WBC
- PLATELET COUNT [3]: 1161 x10E3/uL
- ALANINE AMINOTRANSFERASE [3]: 67.67 u/L
- ALBUMIN [3]: 4 G/DL
- ALKALINE PHOSPHATASE [3]: 395.67 u/L
- ASPARTATE AMINOTRANSFERASE [3]: 96.33 u/L
- BLOOD UREA NITROGEN [3]: 9.67 mg/dL
- CARBON DIOXIDE [3]: 25 mmol/L
- CHLORIDE [3]: 102.33 MEQ/L
- CHOLESTEROL [3]: 76.33 mg/dL
- CREATINE PHOSPHOKINASE [3]: 757 u/L
- CREATININE [3]: 0.16 mg/dL
- GLUCOSE [3]: 172.67 mg/dL
- LACTATE DEHYDROGENASE [3]: 255.33 u/L
- LIPASE [3]: 10.33 u/L
- PHOSPHORUS [3]: 11.53 mg/dL
- POTASSIUM [3]: 6.56 MEQ/L
- SODIUM [3]: 142.23 MEQ/L
- TOTAL BILIRUBIN [3]: 0.13 mg/dL
- TOTAL PROTEIN [3]: 5.83 G/DL
- URIC ACID [3]: 1.93 mg/dL
